Data taken from ChEMBL document CHEMBL3286142, “Synthesis and antihyperglycemic evaluation of new 2-hydrazolyl-4-thiazolidinone-5-carboxylic acids having pyrazolyl pharmacophores” (2014).

These compounds were tested on Rattus norvegicus (assay: Antihyperglycemic activity in sucrose loaded albino Sprague-Dawley rat model assessed as improvement of glucose tolerance by measuring reduction in glucose AUC at 100 mg/kg, po administered 30 mins prior to sucrose load measured for 2 hrs by oral sucrose tolerance test).
Type: functional
Set-up: scale not given: the % may be the effect or the level left

Going from `Cc1ccc(-c2nn(-c3ccccc3)cc2/C=N\N=C2\NC(=O)C(CC(=O)O)S2)cc1` (configuration not stated) to `O=C(O)CC1S/C(=N\N=C/c2cn(-c3ccccc3)nc2-c2ccc(Br)cc2)NC1=O` (configuration not stated), the Activity falls from 6.09% to 5.69%.

Going from `CN(C)C(=N)NC(=N)N` [METFORMIN] to `COc1ccc(-c2nn(-c3ccccc3)cc2/C=N\N=C2\NC(=O)C(CC(=O)O)S2)cc1` (configuration not stated), the Activity falls from 14.1% to 6.97%.

Compared with `O=C(O)CC1S/C(=N\N=C/c2cn(-c3ccccc3)nc2-c2ccc([N+](=O)[O-])cc2)NC1=O` (configuration not stated), `O=C(O)CC1S/C(=N\N=C/c2cn(-c3ccccc3)nc2-c2ccc(O)cc2)NC1=O` (configuration not stated) is higher in Activity: 7.57% for the first, 7.97% for the second.

Compound `O=C(O)CC1S/C(=N\N=C/c2cn(-c3ccccc3)nc2-c2ccc(F)cc2)NC1=O` (configuration not stated) has an Activity of 7.64%.
